Laboratory results reported in the supplement of paper PMC10702517.
± gives the standard deviation.

Columns and labels:
[1] = chemical recovery from spiked human plasma; higher = better extraction; settings: pooled human plasma
[2] = chemical recovery into PDMS from spiked human plasma; higher = better extraction; settings: pooled human plasma, extraction method: PES with PDMS
[3] = chemical recovery by SPE of plasma after PDMS sampling; higher = better extraction; settings: pooled human plasma, extraction method: HLB SPE of plasma after PES
[4] = extraction method: SPE only (HLB 96-well)
[5] = extraction method: PES+SPE (3 d PDMS equilibration then HLB SPE)
[6] = extraction method: SPE only (HLB 96-well), PES comparison experiment
[7] = extraction method: solvent precipitation (ACN + hexane)
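Throughout, for chemical recovery by SPE of plasma after PDMS sampling: over 400 spiked chemicals quantified by LC-HRMS or GC-HRMS via internal standard calibration, recovery relative to spike mix added to unspiked plasma extract to correct matrix effects.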

Structure (SMILES) | chemical recovery [1, 4] | chemical recovery into PDMS ([2]; equilibration time (d): 1) | chemical recovery into PDMS ([2]; equilibration time (d): 3) | chemical recovery into PDMS ([2]; equilibration time (d): 6) | chemical recovery by SPE of plasma ([3]; equilibration time (d): 1) | chemical recovery by SPE of plasma ([3]; equilibration time (d): 3) | chemical recovery by SPE of plasma ([3]; equilibration time (d): 6) | chemical recovery [1, 5] | chemical recovery [1, 6] | chemical recovery [1, 7]
CCCCCCCCc1cccc(Nc2ccccc2)c1CCCCCCCC [Dioctyldiphenylamine] | 7.45 ± 4.7% | 3.85 ± 3.4% | 5.97 ± 3% | 6.08 ± 2.5% | 0.988 ± 0.82% | 0.992 ± 0.41% | 0.785 ± 0.37% | – | – | –
O=c1c2ccccc2[nH]c2ccccc12 [Acridone] | 47.2 ± 3.6% | 11.4 ± 0.43% | 19.2 ± 3.2% | 21.8 ± 3.6% | 57.8 ± 8.4% | 55.6 ± 1.6% | 44.9 ± 4.3% | 62.8 ± 6% | 50.5 ± 5% | 71.9 ± 1.1%
COCC(=O)N(c1c(C)cccc1C)C(C)C(=O)OC (stereo unspecified) [Metalaxyl] | – | 33.1 ± 0.4% | 36.7 ± 3.2% | 36.9 ± 0.38% | 5.41 ± 0.46% | 5.16 ± 0.64% | 0.955 ± 1.6% | – | 50.3 ± 7.6% | 70.2 ± 2.1%
O=[N+]([O-])/N=C1\NCCN1Cc1ccc(Cl)nc1 [Imidacloprid] | 39.9 ± 8% | 3.82 ± 0.41% | 6.8 ± 1.8% | 7.69 ± 1.4% | 49 ± 6.3% | 50.2 ± 4.6% | 43.2 ± 2.7% | 47.6 ± 4% | 53.3 ± 7.2% | 77.5 ± 3.8%
CC[C@@]1([C@@H]2O[C@@H]([C@H]3O[C@@](O)(CO)[C@H](C)C[C@@H]3C)C[C@@H]2C)CC[C@H]([C@]2(C)CC[C@]3(C[C@H](O)[C@@H](C)[C@@H]([C@@H](C)[C@@H](OC)[C@H](C)C(=O)O)O3)O2)O1 [Monensin] | – | 37.1 ± 2.8% | 38.6 ± 0.52% | 37.8 ± 2.2% | 3.19 ± 0.8% | 2.26 ± 0.39% | 1.33 ± 0.27% | – | 29.9 ± 6.6% | 1.03 ± 1.8%
C=CCOC(Cn1ccnc1)c1ccc(Cl)cc1Cl (stereo unspecified) [Imazalil] | 42.1 ± 3% | 20 ± 0.37% | 20.6 ± 1% | 20.7 ± 1.6% | 0.376 ± 0.081% | 0.334 ± 0.2% | 0.104 ± 0.0059% | 21.3 ± 3.4% | 47.6 ± 5.3% | 75 ± 4.8%
COCCN(C(=O)CCl)c1c(C)cccc1C [Dimethachlor] | 46.6 ± 1.6% | 34.9 ± 0.41% | 37.6 ± 4.3% | 38 ± 0.68% | 2.27 ± 0.1% | 2.96 ± 0.38% | 1.66 ± 0.09% | 45.9 ± 7% | 47.8 ± 7.7% | 63.4 ± 4.6%
C[C@]12CC[C@H]3[C@@H](CCC4=CC(=O)CC[C@@]43C)[C@@H]1CC[C@@H]2O [Testosterone] | – | 29.7 ± 1.9% | 35.7 ± 2.2% | 35.6 ± 0.61% | 16 ± 3.3% | 14.5 ± 1.6% | 8.83 ± 2.7% | – | 52.8 ± 8.8% | –
O=Cc1ccccc1Nc1ccccc1Cl [2-(2-(Chlorophenyl)amino)benzaldehyde] | – | 36.6 ± 1.5% | 40.9 ± 4% | 43.5 ± 3.3% | 0.712 ± 0.79% | 0.276 ± 0.48% | – | – | 23.9 ± 4.7% | –
CO/C=C(/C(=O)OC)c1ccccc1COc1cccc(C(F)(F)F)n1 [Picoxystrobin] | 38.3 ± 2.8% | 47 ± 3.2% | 48.5 ± 5.8% | 48.7 ± 2.7% | 1.61 ± 0.23% | 2.06 ± 0.34% | 0.862 ± 0.75% | – | 47.8 ± 7.1% | 63.7 ± 4.3%
c1ccc(Nc2cccc3ccccc23)cc1 [N-Phenyl-1-naphthylamine] | 45.8 ± 14% | 4.16 ± 1.3% | 6.12 ± 3.5% | 6.6 ± 1.1% | 2.23 ± 1.6% | 2.7 ± 0.69% | 1.86 ± 0.51% | – | 18.7 ± 4.1% | 83.2 ± 5.3%
O=S(=O)(O)c1ccccc1 [Benzenesulfonic acid] | 2.56 ± 1.3% | 0.00847 ± 0.015% | – | – | 3.18 ± 3.5% | 1.77 ± 0.98% | 2.93 ± 1.1% | 1.83 ± 0.28% | 8.52 ± 6% | 80.7 ± 8.4%
CC[C@H]1CCC[C@H](O[C@H]2CC[C@H](N(C)C)[C@@H](C)O2)[C@@H](C)C(=O)C2=C[C@@H]3[C@@H](C=C[C@@H]4C[C@@H](O[C@@H]5O[C@@H](C)[C@H](OC)[C@@H](OC)[C@H]5OC)C[C@@H]34)[C@@H]2CC(=O)O1 [Spinosyn A] | – | 0.00824 ± 0.014% | 0.0193 ± 0.034% | 0.00695 ± 0.012% | 0.0715 ± 0.12% | 0.155 ± 0.14% | 0.0384 ± 0.0082% | – | 39.5 ± 10% | 71.7 ± 10%
COCCCC/C(=N\OCCN)c1ccc(C(F)(F)F)cc1 [Fluvoxamine] | 51 ± 0.52% | 2.41 ± 0.97% | 1.09 ± 0.96% | 2.83 ± 1.3% | 1.45 ± 0.092% | 1.56 ± 0.35% | 0.901 ± 0.06% | 4.62 ± 1.6% | 41.8 ± 7.1% | –
CN1C(=O)CN=C(c2ccccc2)c2cc(Cl)ccc21 [Diazepam] | 56.2 ± 2.7% | 34.5 ± 1.3% | 40.4 ± 3.4% | 39.3 ± 2% | 9.29 ± 2% | 6.7 ± 0.88% | 4.56 ± 0.4% | 66.5 ± 10% | 45.5 ± 6.9% | 85.2 ± 3.9%
NC(=O)N1c2ccccc2CC(O)c2ccccc21 (stereo unspecified) [10,11-Dihydro-10-hydroxycarbamazepine] | 49.1 ± 5.4% | 0.612 ± 0.1% | 1.31 ± 0.36% | 1.45 ± 0.21% | 59.8 ± 8.4% | 60.8 ± 6% | 55.6 ± 7.7% | 47.3 ± 4.9% | 51.2 ± 4.5% | 71.1 ± 3%
Cc1cc(Cl)ccc1OCC(=O)O [MCPA] | 43.1 ± 3% | 0.00252 ± 0.0044% | 0.00652 ± 0.0057% | – | 56.1 ± 11% | 64.2 ± 5.6% | 58.8 ± 3.1% | 46.2 ± 2.6% | 59.9 ± 5.7% | 71.8 ± 7.4%
Brc1cc(Br)c(Oc2cc(Br)c(Br)cc2Br)cc1Br [BDE153] | 6.21 ± 3.4% | – | 68.9 ± 6.3% | 71.7 ± 9.9% | 2.71 ± 2.5% | 2.62 ± 0.49% | 1 ± 0.88% | – | – | 44.6 ± 2.3%
Clc1ccc(Cl)c(-c2ccccc2Cl)c1 [PCB18] | – | 48.2 ± 2.5% | 50.3 ± 10% | 46.5 ± 10% | 0.716 ± 0.48% | 0.693 ± 0.67% | 0.249 ± 0.43% | – | 10 ± 1.9% | –
CCOP(=S)(OCC)SCn1nnc2ccccc2c1=O [Ethyl azinphos] | – | 39.8 ± 4.6% | 41.4 ± 0.64% | 42.5 ± 2.1% | 2.46 ± 0.6% | 2.42 ± 0.18% | 1.19 ± 0.21% | – | 46.3 ± 6% | 69.5 ± 2.2%
CC1CCc2cc(F)cc3c(=O)c(C(=O)O)cn1c23 (stereo unspecified) [Flumequine] | 44.8 ± 8% | 0.511 ± 0.092% | 2.26 ± 0.88% | 2.3 ± 1.2% | 43.1 ± 2.7% | 43.8 ± 3.9% | 40.3 ± 3.2% | 44.1 ± 3.4% | 49.8 ± 7.5% | 72.1 ± 3.2%
O=C(/C=C/C=C/c1ccc2c(c1)OCO2)N1CCCCC1 [Piperine] | 40.7 ± 2.7% | 34.8 ± 3.2% | 39.3 ± 4.2% | 36.6 ± 1.7% | 1.77 ± 0.44% | 1.85 ± 0.37% | 0.965 ± 0.074% | – | 56.1 ± 7.1% | 83.6 ± 4%
Fc1ccc(Oc2ccnc3cc(Cl)cc(Cl)c23)cc1 [Quinoxyfen] | 57.2 ± 16% | 48 ± 4.7% | 50.5 ± 5.9% | 48.7 ± 2% | – | 0.232 ± 0.06% | – | – | 31.6 ± 5.7% | 96.2 ± 9.7%
CCNc1nc(Cl)nc(NC(C)(C)C)n1 [Terbuthylazine] | 61.8 ± 2.3% | 37 ± 1% | 41.3 ± 3.5% | 41.4 ± 1.7% | 1.41 ± 0.15% | 1.28 ± 0.32% | 0.724 ± 0.021% | 64.8 ± 10% | 45.8 ± 8% | 69.5 ± 7.1%
